Biological target: T1, LjG10H (geraniol 10-hydroxylase) (Lonicera japonica, UniProt U5NH25)
T1 construct: pET32a, N-terminal TRX/His tag kept (band about 72 kDa), E. coli BL21, Ni column
Assay: HPLC detection of 10-hydroxygeraniol formed by purified recombinant protein
Type: biochemical
Conditions: 2.5 mmol/L geraniol, 1 mmol/L NADPH with glucose-6-phosphate / G6PDH, FAD, FMN, EDTA, DTT, potassium phosphate pH 7.6, 30 °C, 3 h; no P450 reductase mentioned

T1 sequence (U5NH25 entry or part of it): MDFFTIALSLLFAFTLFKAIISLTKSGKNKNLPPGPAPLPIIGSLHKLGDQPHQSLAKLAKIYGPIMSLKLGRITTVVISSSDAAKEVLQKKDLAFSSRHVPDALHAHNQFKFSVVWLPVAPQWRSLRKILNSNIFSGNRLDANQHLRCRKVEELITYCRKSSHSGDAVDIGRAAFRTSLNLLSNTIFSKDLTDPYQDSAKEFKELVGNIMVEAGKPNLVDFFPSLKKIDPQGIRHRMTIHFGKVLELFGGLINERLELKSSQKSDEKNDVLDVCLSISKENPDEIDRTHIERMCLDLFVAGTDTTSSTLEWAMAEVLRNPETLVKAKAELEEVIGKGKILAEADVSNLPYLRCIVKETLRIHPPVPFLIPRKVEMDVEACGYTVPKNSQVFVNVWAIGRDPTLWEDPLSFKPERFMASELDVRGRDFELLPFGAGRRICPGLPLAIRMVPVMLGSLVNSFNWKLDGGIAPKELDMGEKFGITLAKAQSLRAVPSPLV

CC(C)=CCC/C(C)=C/CO [geraniol]
HPLC detection of 10-hydroxygeraniol formed by purified recombinant protein: LjG10H exhibits catalytic activity in the conversion of geraniol to 10-hydroxygeraniol in vitro

Source: PMC11737341, “Cloning and functional verification of Geraniol-10-Hydroxylase gene in Lonicera japonica” (PeerJ, 2025)
